Experimental findings from US7994185B2, “Benzene sulfonamide thiazole and oxazole compounds” (Glaxo Smith Kline LLC, priority 2008, dated 2011) are described below.

Read-outs that look alike come from different tables or passages of the source.

Assay [1] relates to Human melanoma cancer cells (SK-MEL-28). The experiment in a line: Cell growth inhibition assay (CellTiter-Glo), SK-MEL-28. It counts as cell-based. (In general: Cellular ATP, detected with luciferase, serves as a proxy for viable cell number.)
For assay [2], the system named is Human colon tumor cells (Colo205). The assay can be described thus: Cell growth inhibition assay (CellTiter-Glo), Colo205. It counts as cell-based. The method, boiled down:
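Colo205 (and SK-MEL-28) cells in RPMI with 10% FBS were exposed to 10-point 1:3 serial dilutions of compound at 0.2% final DMSO for 3 days at 37 °C. Total ATP, a surrogate for cell number, was read by CellTiter-Glo luminescence, with % growth inhibition relative to DMSO-treated wells.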

Assay [3] concerns the target T1, BRAFV600E full-length (amino acids 2-766) (Homo sapiens, UniProt P15056, V600E).
T1 construct: His6-tagged BRAFV600E full-length (amino acids 2-766); His6; made in house; host or cells: baculovirus expression system (insect cells)
The experiment in a line: B-Raf Accelerated MEK ATPase assay (BRAMA). The format is biochemical. Conditions: categorized. The method, boiled down: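 Coupled-enzyme readout: ADP generated by MEK-mediated ATP hydrolysis, uncoupled from ERK phosphorylation, is linked to NADH oxidation through pyruvate kinase and lactate dehydrogenase.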

Setting [4] is: SK-MEL-28, Table 3b, later runs, average for the one or more runs, categorized, read-out: IC50 for SK-MEL-28.
The mark [5] stands for this setting: COLO 205, Table 2b, later runs, average for the one or more runs, categorized, read-out: IC50 for Colo205.
Where [6] appears, read: Table 1b, later runs, average pIC50 for the one or more runs, read-out: B-Raf pIC50 (converted).
Where [7] appears, read: SK-MEL-28, 72 h, Table 3a, 3 days incubation, read-out: Activity in SK-MEL-28 Tumor Cells.
The mark [8] stands for this setting: COLO 205, 72 h, Table 2a, 3 days incubation, read-out: Activity in Colo205 Tumor Cells.
[9] abbreviates: B-Raf Activity, Table 1a, highest pIC50 for the one or more runs.
The mark [10] stands for this setting: B-Raf pIC50, Table 1b, later runs, average pIC50 for the one or more runs.

T1 sequence (P15056 2-766 V600E): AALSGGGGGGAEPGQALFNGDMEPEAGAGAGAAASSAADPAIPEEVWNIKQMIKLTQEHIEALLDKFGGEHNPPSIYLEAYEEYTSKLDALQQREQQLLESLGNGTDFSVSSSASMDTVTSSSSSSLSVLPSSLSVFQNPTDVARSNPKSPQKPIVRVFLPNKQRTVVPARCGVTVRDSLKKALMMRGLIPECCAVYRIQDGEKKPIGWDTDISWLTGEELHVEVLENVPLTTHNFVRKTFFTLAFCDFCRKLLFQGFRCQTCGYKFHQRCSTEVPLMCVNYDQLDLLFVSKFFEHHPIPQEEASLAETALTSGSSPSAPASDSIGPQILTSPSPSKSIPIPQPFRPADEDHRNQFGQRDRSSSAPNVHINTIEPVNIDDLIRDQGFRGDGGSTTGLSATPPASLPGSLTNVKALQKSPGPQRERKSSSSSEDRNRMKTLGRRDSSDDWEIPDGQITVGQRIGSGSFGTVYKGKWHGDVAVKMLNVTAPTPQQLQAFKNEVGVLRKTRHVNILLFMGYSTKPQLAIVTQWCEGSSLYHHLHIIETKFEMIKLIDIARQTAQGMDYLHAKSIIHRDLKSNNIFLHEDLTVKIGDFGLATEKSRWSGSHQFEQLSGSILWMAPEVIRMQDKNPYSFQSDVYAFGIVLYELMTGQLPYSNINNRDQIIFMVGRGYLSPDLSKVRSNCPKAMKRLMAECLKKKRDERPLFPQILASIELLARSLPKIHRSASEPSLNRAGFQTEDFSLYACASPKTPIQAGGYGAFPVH

As to `CC(C)(C)c1nc(-c2cccc(NS(=O)(=O)c3ccccc3)c2F)c(-c2ccnc(N)n2)s1` [Example 219, N-{3-[5-(2-amino-4-pyrimidinyl)-2-(1,1-dimethylethyl)-1,3-thiazol-4-yl]-2-fluorophenyl}benzenesulfonamide], the IC50 is less than 100 nM in assay [1] (setting [4]), less than 100 nM in assay [2] (setting [5]) and 3.16 to 31.6 nM in assay [3] (setting [6]).
For the compound `CC(C)CNc1nccc(-c2sc(N3CCOCC3)nc2-c2cccc(NS(=O)(=O)c3cc(F)ccc3F)c2)n1` [Example 206], the IC50 in assay [1] (setting [7]) is less than 100 nM; in assay [1] (setting [4]), less than 100 nM; in assay [2] (setting [8]), less than 100 nM; in assay [2] (setting [5]) it was less than 100 nM; in assay [3] (setting [9]) it was less than 100 nM; in assay [3] (setting [6]), 3.16 to 31.6 nM.
On to `CC(C)(C)c1nc(-c2cccc(NS(=O)(=O)c3cc(F)ccc3F)c2F)c(-c2ccnc(NCC(F)(F)F)n2)s1` [Example 94, N-[3-(2-(1,1-Dimethylethyl)-5-{2-[(2,2,2-trifluoroethyl)amino]-4-pyrimidinyl}-1,3-thiazol-4-yl)-2-fluorophenyl]-2,5-difluorobenzenesulfonamide], for which the IC50 was 100 to 1000 nM in assay [1] (setting [7]); 100 to 1000 nM in assay [1] (setting [4]); 100 to 1000 nM in assay [2] (setting [8]); 100 to 1000 nM in assay [2] (setting [5]); less than 100 nM in assay [3] (setting [9]); 3.16 to 31.6 nM in assay [3] (setting [6]).
As for `CC(=O)NCCNc1nccc(-c2sc(C(C)C)nc2-c2cccc(NS(=O)(=O)c3cc(F)ccc3F)c2F)n1` [Example 187], the IC50 in assay [1] (setting [7]) was less than 100 nM; in assay [1] (setting [4]) it was less than 100 nM; in assay [2] (setting [8]) it was less than 100 nM; in assay [2] (setting [5]) it was 1000 to 10000 nM; in assay [3] (setting [9]) it was less than 100 nM; in assay [3] (setting [10]), not above 3.16 nM.
Regarding `CC(C)c1nc(-c2ccc(F)c(NS(=O)(=O)c3ccco3)c2)c(-c2ccnc(NCCCS(C)(=O)=O)n2)s1` [Example 148], the IC50 in assay [1] (setting [7]) is more than 1000 nM; in assay [1] (setting [4]) it was 1000 to 10000 nM; in assay [2] (setting [8]), more than 1000 nM; in assay [2] (setting [5]), 1000 to 10000 nM; in assay [3] (setting [9]), less than 100 nM; in assay [3] (setting [6]), 3.16 to 31.6 nM.
For `Nc1nccc(-c2sc(C3CCOCC3)nc2-c2cccc(NS(=O)(=O)c3c(F)cccc3F)c2Cl)n1` [Example 238, N-{3-[5-(2-amino-4-pyrimidinyl)-2-(tetrahydro-2H-pyran-4-yl)-1,3-thiazol-4-yl]-2-chlorophenyl}-2,6-difluorobenzenesulfonamide], the IC50 in assay [1] (setting [4]) was less than 100 nM; in assay [2] (setting [5]) it was less than 100 nM; in assay [3] (setting [10]), not above 3.16 nM.
Consider `CC(C)c1nc(-c2ccc(F)c(NS(=O)(=O)c3cc(F)ccc3F)c2)c(-c2ccnc(NCCCS(C)(=O)=O)n2)s1` [Example 204], for which the IC50 in assay [1] (setting [7]) was less than 100 nM; in assay [1] (setting [4]) it was less than 100 nM; in assay [2] (setting [8]), less than 100 nM; in assay [2] (setting [5]), less than 100 nM; in assay [3] (setting [9]) it was less than 100 nM; in assay [3] (setting [6]), 3.16 to 31.6 nM.
For the compound `CC(C)(C)c1nc(-c2cccc(NS(=O)(=O)c3c(F)cccc3F)c2Cl)c(-c2ccncn2)s1` [Example 237, N-{2-chloro-3-[2-(1,1-dimethylethyl)-5-(4-pyrimidinyl)-1,3-thiazol-4-yl]phenyl}-2,6-difluorobenzenesulfonamide], the IC50 in assay [1] (setting [4]) was less than 100 nM; in assay [2] (setting [5]), less than 100 nM; in assay [3] (setting [6]), 3.16 to 31.6 nM.
Regarding `CC(C)(C)c1nc(-c2cccc(NS(=O)(=O)c3cc(F)ccc3F)c2F)c(-c2ccnc(NCCCN3CCCC3=O)n2)s1` [Example 96, N-{3-[2-(1,1-Dimethylethyl)-5-(2-{[3-(2-oxo-1-pyrrolidinyl)propyl]amino}-4-pyrimidinyl)-1,3-thiazol-4-yl]-2-fluorophenyl}-2,5-difluorobenzenesulfonamide], the IC50 in assay [1] (setting [7]) was less than 100 nM; in assay [1] (setting [4]), less than 100 nM; in assay [2] (setting [8]), less than 100 nM; in assay [2] (setting [5]), less than 100 nM; in assay [3] (setting [9]), less than 100 nM; in assay [3] (setting [10]), not above 3.16 nM.
With `CC(C)c1nc(-c2cccc(NS(=O)(=O)C3CC3)c2)c(-c2ccnc(NCCS(C)(=O)=O)n2)s1` [Example 52, N-{3-[2-(1-Methylethyl)-5-(2-{[2-(methylsulfonyl)ethyl]amino}-4-pyrimidinyl)-1,3-thiazol-4-yl]phenyl}cyclopropanesulfonamide], the IC50 in assay [1] (setting [7]) is 100 to 1000 nM; in assay [1] (setting [4]), 100 to 1000 nM; in assay [2] (setting [8]), 100 to 1000 nM; in assay [2] (setting [5]), 100 to 1000 nM; in assay [3] (setting [9]) it was 100 to 1000 nM; in assay [3] (setting [10]), 31.6 to 1000 nM.
Consider `CC(C)c1nc(-c2cccc(NS(=O)(=O)c3cc(F)ccc3F)c2F)c(-c2ccnc(NCCCN3CCCC3=O)n2)s1` [Example 185], for which the IC50 in assay [1] (setting [7]) is less than 100 nM; in assay [1] (setting [4]), less than 100 nM; in assay [2] (setting [8]), less than 100 nM; in assay [2] (setting [5]) it was less than 100 nM; in assay [3] (setting [9]), less than 100 nM; in assay [3] (setting [10]), not above 3.16 nM.
Regarding `CS(=O)(=O)CCCNc1nccc(-c2sc(N3CCOCC3)nc2-c2cccc(NS(=O)(=O)c3c(F)cccc3F)c2F)n1` [Example 15, 2,6-Difluoro-N-{2-fluoro-3-[5-(2-{[3-(methylsulfonyl)propyl]amino}-4-pyrimidinyl)-2-(4-morpholinyl)-1,3-thiazol-4-yl]phenyl}benzenesulfonamide], the IC50 in assay [1] (setting [7]) is less than 100 nM; in assay [1] (setting [4]), less than 100 nM; in assay [2] (setting [8]), less than 100 nM; in assay [2] (setting [5]), less than 100 nM; in assay [3] (setting [9]) it was less than 100 nM; in assay [3] (setting [10]) it was not above 3.16 nM.
With `CC(C)(C)c1nc(-c2cccc(NS(=O)(=O)c3c(F)cccc3F)c2)c(-c2ccnc(NCCS(C)(=O)=O)n2)s1` [Example 2, N-{3-[2-(1,1-Dimethylethyl)-5-(2-{[2-(methylsulfonyl)ethyl]amino}-4-pyrimidinyl)-1,3-thiazol-4-yl]phenyl}-2,6-difluorobenzenesulfonamide], the IC50 is less than 100 nM in assay [1] (setting [7]); less than 100 nM in assay [1] (setting [4]); less than 100 nM in assay [2] (setting [8]); less than 100 nM in assay [2] (setting [5]); less than 100 nM in assay [3] (setting [9]); not above 3.16 nM in assay [3] (setting [10]).
As for `CC(C)(C)c1nc(-c2cccc(NS(=O)(=O)c3cc(F)ccc3F)c2F)c(-c2ccnc(CCS(C)(=O)=O)n2)s1` [Example 214], the IC50 in assay [1] (setting [7]) is less than 100 nM; in assay [1] (setting [4]), less than 100 nM; in assay [2] (setting [8]), less than 100 nM; in assay [2] (setting [5]), less than 100 nM; in assay [3] (setting [9]), less than 100 nM; in assay [3] (setting [10]), not above 3.16 nM.
Regarding `CC(C)c1nc(-c2cccc(NS(=O)(=O)c3cccnc3)c2)c(-c2ccnc(NCCS(C)(=O)=O)n2)s1` [Example 33, N-{3-[2-(1-Methylethyl)-5-(2-{[2-(methylsulfonyl)ethyl]amino}-4-pyrimidinyl)-1,3-thiazol-4-yl]phenyl}-3-pyridinesulfonamide], the IC50 in assay [1] (setting [7]) is less than 100 nM; in assay [1] (setting [4]), less than 100 nM; in assay [2] (setting [8]) it was less than 100 nM; in assay [2] (setting [5]), less than 100 nM; in assay [3] (setting [9]), less than 100 nM; in assay [3] (setting [10]), not above 3.16 nM.
For `CC(C)c1nc(-c2ccc(F)c(NS(=O)(=O)c3c(F)cccc3F)c2)c(-c2ccnc(NCCN3CCOCC3)n2)s1` [Example 165], the IC50 in assay [1] (setting [7]) was 100 to 1000 nM; in assay [1] (setting [4]), 100 to 1000 nM; in assay [2] (setting [8]) it was 100 to 1000 nM; in assay [2] (setting [5]), 100 to 1000 nM; in assay [3] (setting [10]), 31.6 to 1000 nM.
Regarding `CC(C)(C)c1nc(-c2c(F)ccc(NS(=O)(=O)c3cccc(F)c3)c2F)c(-c2ccnc(N)n2)s1` [Example 157], the IC50 in assay [1] (setting [7]) is less than 100 nM; in assay [1] (setting [4]), less than 100 nM; in assay [2] (setting [8]), less than 100 nM; in assay [2] (setting [5]), less than 100 nM; in assay [3] (setting [9]), less than 100 nM; in assay [3] (setting [10]), not above 3.16 nM.
